Measurements: PubChem BioAssay (NCI)
“And” between values parts separate entries of the source, which are not always exact repeats. Equal entries are not always repeated.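 A five-concentration, 48-hour dose response in 96-well plates underlies each endpoint, interpolated linearly between surrounding concentrations. GI50 = concentration required for 50% inhibition of growth. TGI marks complete inhibition of growth.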

How the values were obtained:
Assay in all cases: growth of human tumour cells (NCI), 48 h
OVCAR-3 ovarian = tested on: OVCAR-3 ovarian
SK-MEL-28 melanoma = tested on: SK-MEL-28 melanoma
HOP-92 NSCLC = tested on: HOP-92 NSCLC
SK-OV-3 ovarian = tested on: SK-OV-3 ovarian
A498 renal = tested on: A498 renal
BT-549 breast = tested on: BT-549 breast
SN12C renal = tested on: SN12C renal
SK-MEL-5 melanoma = tested on: SK-MEL-5 melanoma
EKVX NSCLC = tested on: EKVX NSCLC
PC-3 prostate = tested on: PC-3 prostate

CC1(C)CC([P+](c2ccccc2)(c2ccccc2)c2ccccc2)=NN1
GI50 (OVCAR-3 ovarian): 2.18 µM
TGI (OVCAR-3 ovarian): 73.7 µM
GI50 (SK-MEL-28 melanoma): 8.67 µM
TGI (SK-MEL-28 melanoma): > 100 µM
GI50 (HOP-92 NSCLC): 3.75 µM
TGI (HOP-92 NSCLC): 71.9 µM
GI50 (SK-OV-3 ovarian): 11.7 µM
TGI (SK-OV-3 ovarian): 68.7 µM
GI50 (A498 renal): 4.24 µM
TGI (A498 renal): 35.7 µM
GI50 (BT-549 breast): 1.03 µM
TGI (BT-549 breast): 4.42 µM
GI50 (SN12C renal): 4.39 µM
TGI (SN12C renal): > 100 µM
GI50 (SK-MEL-5 melanoma): 3.13 µM
TGI (SK-MEL-5 melanoma): 17.7 µM
GI50 (EKVX NSCLC): 2420 nM
TGI (EKVX NSCLC): > 100 µM

N#Cc1ccc(Oc2cccc(Oc3ccccc3)c2)cc1C#N
TGI (OVCAR-3 ovarian): > 100 µM
TGI (SK-MEL-28 melanoma): > 100 µM
GI50 (HOP-92 NSCLC): > 100 µM
TGI (HOP-92 NSCLC): > 100 µM
GI50 (SK-OV-3 ovarian): > 100 µM
TGI (SK-OV-3 ovarian): > 100 µM
TGI (A498 renal): > 100 µM
GI50 (SN12C renal): > 100 µM
TGI (SN12C renal): > 100 µM
TGI (SK-MEL-5 melanoma): > 100 µM
TGI (EKVX NSCLC): > 100 µM

CN(C)CCCCn1ccc2c1C(=O)c1c(c(O)c3ccccc3c1O)C2=O
GI50 (OVCAR-3 ovarian): 2.98 µM
TGI (OVCAR-3 ovarian): 15.9 µM
GI50 (SK-MEL-28 melanoma): 14.7 µM
TGI (SK-MEL-28 melanoma): 28.2 µM
GI50 (SK-OV-3 ovarian): 11.4 µM
TGI (SK-OV-3 ovarian): 24 µM
GI50 (SN12C renal): 14.1 µM
TGI (SN12C renal): 28.6 µM
GI50 (PC-3 prostate): 10 µM
TGI (PC-3 prostate): 23.4 µM

Nc1nccc2c1ncn2C1OC(CO)C(O)C1O (centres undefined)
GI50 (OVCAR-3 ovarian): > 100 µM
TGI (OVCAR-3 ovarian): > 100 µM
GI50 (SK-MEL-28 melanoma): > 100 µM
TGI (SK-MEL-28 melanoma): > 100 µM
GI50 (HOP-92 NSCLC): 92.2 µM
TGI (HOP-92 NSCLC): > 100 µM
GI50 (SK-OV-3 ovarian): > 100 µM
TGI (SK-OV-3 ovarian): > 100 µM
GI50 (BT-549 breast): 88.8 µM
TGI (BT-549 breast): > 100 µM
GI50 (SN12C renal): 89.3 µM
TGI (SN12C renal): > 100 µM
GI50 (PC-3 prostate): > 100 µM
TGI (PC-3 prostate): > 100 µM
GI50 (SK-MEL-5 melanoma): > 100 µM
TGI (SK-MEL-5 melanoma): > 100 µM
GI50 (EKVX NSCLC): > 100000 nM
TGI (EKVX NSCLC): > 100 µM

COc1ccc2c(CCNC(=O)/C=C/c3ccccc3)c(C(C)=O)[nH]c2c1[N+](=O)[O-]
TGI (OVCAR-3 ovarian): > 100 µM
TGI (SK-MEL-28 melanoma): > 100 µM
TGI (A498 renal): 76.5 µM
TGI (SN12C renal): > 100 µM

FC(F)(F)c1cccc2c(SCCc3n[nH]c(=S)o3)ccnc12
GI50 (OVCAR-3 ovarian): 42.9 µM
TGI (OVCAR-3 ovarian): > 100 µM
GI50 (SK-MEL-28 melanoma): 82.9 µM
TGI (SK-MEL-28 melanoma): > 100 µM
GI50 (HOP-92 NSCLC): 28.4 µM
TGI (HOP-92 NSCLC): 81.6 µM
GI50 (SK-OV-3 ovarian): 92.7 µM
TGI (SK-OV-3 ovarian): > 100 µM
GI50 (BT-549 breast): 30 µM
TGI (BT-549 breast): > 100 µM
GI50 (SN12C renal): 51.4 µM
TGI (SN12C renal): > 100 µM
GI50 (PC-3 prostate): 34.1 µM
TGI (PC-3 prostate): > 100 µM
GI50 (SK-MEL-5 melanoma): 19.5 µM
TGI (SK-MEL-5 melanoma): 44.1 µM
GI50 (EKVX NSCLC): 27600 nM
TGI (EKVX NSCLC): > 100 µM

O=c1cccccc1[O-].O=c1cccccc1[O-].O=c1cccccc1[O-].[Ce+3]
TGI (OVCAR-3 ovarian): 35.5 µM
TGI (HOP-92 NSCLC): 89.9 µM
TGI (SK-OV-3 ovarian): 72.3 µM
GI50 (A498 renal): 30.8 µM
TGI (A498 renal): > 100 µM
GI50 (SN12C renal): 25.7 µM
TGI (SN12C renal): > 100 µM
TGI (SK-MEL-5 melanoma): 38.8 µM
TGI (EKVX NSCLC): > 100 µM

COc1cc(/C=C\c2ccc(Br)cc2)cc(OC)c1OC
TGI (HOP-92 NSCLC): > 100 µM
TGI (SK-OV-3 ovarian): > 100 µM
TGI (SN12C renal): > 100 µM
TGI (SK-MEL-5 melanoma): 0.109 µM
TGI (EKVX NSCLC): > 100 µM

NCc1c(C(N)=O)ncn1Cc1ccccc1
TGI (OVCAR-3 ovarian): > 100 µM
TGI (SK-MEL-28 melanoma): > 100 µM
TGI (HOP-92 NSCLC): > 100 µM
TGI (SK-OV-3 ovarian): > 100 µM
TGI (A498 renal): > 100 µM
TGI (SN12C renal): > 100 µM
TGI (SK-MEL-5 melanoma): > 100 µM
TGI (EKVX NSCLC): > 100 µM

CCOC(=O)C(C(=O)OCC)C(=O)c1ccccc1C(=O)c1ccccc1
TGI (OVCAR-3 ovarian): > 100 µM
TGI (HOP-92 NSCLC): > 100 µM
TGI (SK-OV-3 ovarian): > 100 µM
TGI (A498 renal): > 100 µM
TGI (BT-549 breast): > 100 µM
TGI (SN12C renal): > 100 µM
TGI (SK-MEL-5 melanoma): > 100 µM
TGI (EKVX NSCLC): 96.7 µM

Fc1ccc2c(c1)C1=C(CO2)C(c2ccc(Cl)cc2)NC(=S)N1 (centres undefined)
GI50 (OVCAR-3 ovarian): 14.7 µM
TGI (OVCAR-3 ovarian): 49.5 µM
GI50 (HOP-92 NSCLC): 61 µM
TGI (HOP-92 NSCLC): > 100 µM
GI50 (SK-OV-3 ovarian): 68.8 µM
TGI (SK-OV-3 ovarian): > 100 µM
GI50 (A498 renal): 17.4 µM
TGI (A498 renal): 73.7 µM
GI50 (SN12C renal): 17.7 µM
TGI (SN12C renal): 40.2 µM
GI50 (PC-3 prostate): 37.2 µM
TGI (PC-3 prostate): > 100 µM
GI50 (SK-MEL-5 melanoma): 19.2 µM
TGI (SK-MEL-5 melanoma): 49.5 µM
GI50 (EKVX NSCLC): 37400 nM
TGI (EKVX NSCLC): > 100 µM

O=C(Nc1nc2ccc([N+](=O)[O-])cc2s1)C(=O)C(C(=O)c1ccncc1)C1OC(=O)c2ccccc21 (centres undefined)
TGI (OVCAR-3 ovarian): > 100 µM
TGI (HOP-92 NSCLC): > 100 µM
TGI (A498 renal): > 100 µM
TGI (SN12C renal): > 100 µM
TGI (EKVX NSCLC): > 100 µM

CCCCCCCCCCCCCCCCCCOc1ccccc1CC(=O)NCC[N+](C)(C)C
GI50 (OVCAR-3 ovarian): 3.55 µM
TGI (OVCAR-3 ovarian): 50.5 µM
GI50 (SK-MEL-28 melanoma): 10.4 µM
TGI (SK-MEL-28 melanoma): 45.4 µM
GI50 (HOP-92 NSCLC): 1.92 µM
TGI (HOP-92 NSCLC): 7.16 µM
GI50 (SK-OV-3 ovarian): 15.4 µM
TGI (SK-OV-3 ovarian): 35.7 µM
GI50 (A498 renal): 9.55 µM
TGI (A498 renal): 49.8 µM
GI50 (BT-549 breast): 3.25 µM
TGI (BT-549 breast): > 100 µM
GI50 (SN12C renal): 3.67 µM
TGI (SN12C renal): 37.9 µM
GI50 (SK-MEL-5 melanoma): 6.59 µM
TGI (SK-MEL-5 melanoma): 45.8 µM
GI50 (EKVX NSCLC): 18000 nM
TGI (EKVX NSCLC): 66 µM

CCn1c(=O)c2ccccc2n2c(=O)c3cc4ccccc4cc3nc12
TGI (OVCAR-3 ovarian): > 100 µM
TGI (SK-OV-3 ovarian): > 100 µM
TGI (A498 renal): > 100 µM
TGI (SN12C renal): > 100 µM
TGI (SK-MEL-5 melanoma): > 100 µM
TGI (EKVX NSCLC): > 100 µM

CCOC(=O)N1C(c2ccccc2)C=CC(c2ccccc2)N1C(=O)OCC (centres undefined)
TGI (OVCAR-3 ovarian): > 100 µM
TGI (SK-MEL-28 melanoma): > 100 µM
TGI (HOP-92 NSCLC): > 100 µM
TGI (A498 renal): > 100 µM
TGI (SN12C renal): > 100 µM
TGI (SK-MEL-5 melanoma): > 100 µM
TGI (EKVX NSCLC): > 100 µM

CCN(CC)c1ccc(N=C2C=C(Cl)C(=O)c3ncccc32)c(C)c1
TGI (OVCAR-3 ovarian): 5.04 µM
TGI (SK-MEL-28 melanoma): 91 µM
TGI (HOP-92 NSCLC): 7.2 µM
TGI (SK-OV-3 ovarian): 67.9 µM
TGI (SN12C renal): 55.1 µM
TGI (SK-MEL-5 melanoma): 11.3 µM
TGI (EKVX NSCLC): 36.8 µM

CS(=O)(=O)N(CCC#N)c1ccc(C=O)cc1
TGI (OVCAR-3 ovarian): > 100 µM
TGI (SK-MEL-28 melanoma): > 100 µM
TGI (SK-OV-3 ovarian): > 100 µM
TGI (A498 renal): > 100 µM
TGI (SN12C renal): > 100 µM
TGI (SK-MEL-5 melanoma): > 100 µM
TGI (EKVX NSCLC): > 100 µM

CC(=O)[O-].[Zn].c1ccc(/C(=N\Nc2ccccn2)c2ccccn2)cc1
GI50 (HOP-92 NSCLC): 0.0122 µM
TGI (HOP-92 NSCLC): 13.3 µM
GI50 (SK-OV-3 ovarian): 0.507 µM
TGI (SK-OV-3 ovarian): 2.79 µM
TGI (A498 renal): 9.16 µM
GI50 (SN12C renal): 0.363 µM
TGI (SN12C renal): 10.9 µM
GI50 (SK-MEL-5 melanoma): 0.447 µM
TGI (SK-MEL-5 melanoma): 1.59 µM
GI50 (EKVX NSCLC): 46.5 nM
TGI (EKVX NSCLC): 2.84 µM

CC1[C@@H]2CC=C3[C@H]4CCC5Cc6nc7c(nc6C[C@@]5(C)C4(O)CC(=O)[C@]32CO[C@]12OC(C)(C)CC2O)CC1CC[C@@H]2C3=C[C@H]4O[C@@]5(O[C@@](C)(CO)C[C@@H]5O)C(C)[C@@]4(O)[C@]3(C)[C@@H](O)CC2[C@]1(C)C7 (some centres undefined)
TGI (OVCAR-3 ovarian): > 3.6 µM
GI50 (SK-MEL-28 melanoma): 0.000236 µM
TGI (SK-MEL-28 melanoma): 0.00201 µM
GI50 (HOP-92 NSCLC): 0.000104 µM and 0.00036 µM
GI50 (SK-OV-3 ovarian): 0.000461 µM and 0.00249 µM
GI50 (A498 renal): 0.000396 µM
TGI (A498 renal): 0.00425 µM and 0.00493 µM
TGI (SN12C renal): > 3.6 µM
GI50 (SK-MEL-5 melanoma): 0.000717 µM and 0.00638 µM
GI50 (EKVX NSCLC): 6.15 nM and 9.96 nM
TGI (EKVX NSCLC): 0.152 µM and 0.814 µM

CC(=O)OC1CCC2C(=CCC3C2(C)C(=O)CC2(C)C(C4(C)OC(C(C)C)=CC4=O)C(O)CC32C)C1(C)C (centres undefined)
TGI (OVCAR-3 ovarian): > 10 µM
TGI (HOP-92 NSCLC): > 100 µM
TGI (SK-OV-3 ovarian): > 100 µM
TGI (A498 renal): > 100 µM
TGI (SN12C renal): > 100 µM
TGI (SK-MEL-5 melanoma): 56.9 µM
TGI (EKVX NSCLC): > 100 µM
